Patent US20110144175A1, “METHOD FOR CONTROLLING DEGRADATION OF AGRICULTURAL CHEMICAL ACTIVE INGREDIENT” (priority 2008, published 2011)

Experiment: Accelerated preservation test of dustable powder (Cyazofamid content by HPLC)
Type: physicochemical
Protocol: The dustable powder obtained by Example 1 or Comparative Example was subjected to an accelerated preservation at 54° C. for 14 days, and then the Cyazofamid content in the dustable powder was measured by an HPLC (high performance liquid chromatography) and degradation ratio (%) of Cyazofamid was calculated by the following formula. In this connection, the Cyazofamid content in the dustable powder preserved at 4° C. was measured at the time of measuring the Cyazofamid content in the dustable powder after accelerated preservation, and the value was used as the initial stage content. Degradation ratio (%)=(initial stage content−content after accelerated preservation)/initial stage content×100

| Substance | Degradation Ratio (%) of Cyazofamid |
| --- | --- |
| Epoxidized Soybean Oil | 5% |
| Polyoxyethylene Castor Oil | 7% |
